Data reported in ChEMBL document CHEMBL3232884, “Design, synthesis, and biological evaluation of novel pyridine-bridged analogues of combretastatin-A4 as anticancer agents” (J Med Chem, 2014).
Calls of active or inactive are those of the source. The calls are words filed in the database; no cut-off is given here.

Assays:
[1] = system: MDA-MB-231; assay: Cytotoxicity against human MDA-MB-231 cells after 72 hrs by resazurin based fluorescence assay; assay type: functional, cell-based; details: Homo sapiens, MDA-MB-231, 72 h
[2] = system: A549; assay: Cytotoxicity against human A549 cells after 72 hrs by resazurin based fluorescence assay; assay type: functional, cell-based; details: Homo sapiens, A549, 72 h
[3] = system: HeLa; assay: Cytotoxicity against human HeLa cells after 72 hrs by resazurin based fluorescence assay; assay type: functional, cell-based; details: Homo sapiens, HeLa, 72 h
[4] = system: HeLa; assay: Antimicrotubule activity in human HeLa cells assessed as reduction of interphase microtubule network at 1 uM after 24 hrs by indirect immunofluorescence technique; assay type: functional, cell-based
[5] = system: MDA-MB-231; assay: Antimicrotubule activity in human MDA-MB-231 cells assessed as reduction of interphase microtubule network at 1 uM after 24 hrs by indirect immunofluorescence technique; assay type: functional, cell-based
[6] = biological target: T1, Tubulin (Bos taurus) (UniProt Q6B856+Q862L2+Q862F3); assay: Inhibition of bovine brain tubulin polymerization at 1 uM after 60 mins by spectrophotometric analysis
[7] = biological target: T1, Tubulin (Bos taurus); assay: Induction of bovine brain tubulin polymerization at 1 uM after 60 mins by spectrophotometric analysis
[8] = biological target: T1, Tubulin (Bos taurus); assay: Inhibition of bovine brain tubulin polymerization at 10 uM after 60 mins by spectrophotometric analysis
[9] = system: Chorioallantoic membrane; assay: Antiangiogenic activity in chicken embryo chorioallantoic membrane model assessed as inhibition of bFGF/VEGF-induced new vessel growth; assay type: functional, tissue-based; details: Gallus gallus
[10] = system: HeLa; assay: Cell cycle arrest in human HeLa cells assessed as accumulation at G0/G1 phase at 1 uM after 24 hrs using propidium iodide staining by flow cytometry (reference value: 61.60%); assay type: functional
[11] = Plasma concentration in C57BL/6 mouse at 5 mg/kg, po after 1 hr; assay type: ADME, organism-based; set-up: dose 5 mg/kg, route oral
[12] = Plasma concentration in C57BL/6 mouse at 5 mg/kg, po after 3 hrs; assay type: ADME, organism-based; set-up: dose 5 mg/kg, route oral

SMILES	IC50 [1] [µM]	IC50 [2] [µM]	IC50 [3] [nM]	other results
COc1ccc(-c2cccc(Br)n2)c(OC)c1	> 100	> 50	> 50000	–
COc1ccc(-c2cccc(-c3c(OC)cccc3OC)n2)c(OC)c1	> 100	> 100	> 50000	–
COc1ccc(-c2cccc(Br)n2)cc1	10	2	2000	–
COc1cccc(-c2cccc(-c3ccc(OC)cc3OC)n2)c1	9.02	0.56	67	–
COc1ccc(-c2ccc(-c3cc(OC)c(OC)c(OC)c3)nc2)cc1OC	> 50	> 50	> 25000	–
COc1ccc(-c2cccc(-c3ccc(OC)c(OC)c3)n2)c(OC)c1	13	> 25	> 50000	–
COc1ccc(-c2ccnc(-c3ccc(OC)cc3OC)c2)c(OC)c1	> 50	> 50	> 25000	–
COc1ccc(-c2cccc(-c3ccc(OC)cc3OC)n2)cc1	0.0031	0.089	3.8	Activity [4]: Active; Activity [5]: Active; inhibition [6]: inactive; Activity [7]: Active; inhibition [8]: inactive; growth inhibition (GI) [9]: Active
COc1ccc(-c2cccc(-c3ccc(OC)cc3)n2)cc1	9	> 100	2000	–
COc1cc(-c2cccc(Br)n2)cc(OC)c1OC	6	9	12000	–
COc1ccc(-c2cccc(-c3cccc(OC)c3OC)n2)c(OC)c1	> 50	> 50	> 50000	–
COc1cc(-c2ccc(-c3cc(OC)c(OC)c(OC)c3)nc2)cc(OC)c1OC	11	> 100	2680	–
COc1ccc(/C=C\c2cc(OC)c(OC)c(OC)c2)cc1O [COMBRETASTATIN A4]	0.0028	0.0038	0.9	Activity [4]: Active; Activity [5]: Active; Activity [10]: 37%; inhibition [6]: 35%; inhibition [8]: Active; growth inhibition (GI) [9]: Active; concentration at 1 h [11]: 2.3 ng/mL; concentration at 3 h [12]: 2.1 ng/mL
COc1ccc(-c2cccc(Br)n2)cc1OC	> 25	> 25	> 50000	–
COc1ccc(-c2cccc(-c3cc(OC)c(OC)c(OC)c3)n2)cc1OC	2.49	> 50	26	–
COc1ccc(-c2cccc(-c3cc(OC)c(OC)c(OC)c3)n2)cc1	> 25	> 50	> 50000	–
COc1ccc(-c2cccc(-c3ccc(OC)c(OC)c3)n2)cc1	> 25	> 25	> 25000	–
